Literature values in patent publication US20090239791A1, “PHARMACEUTICAL COMPOSITION CONTAINING LIPOPHILIC SUBSTANCE WHICH INHIBITS IL-2 PRODUCTION” (Astellas Pharma Inc., priority 2007, published 2009).

Test system: human mixed lymphocyte reaction
Details: Transplant Proceedings, No 5, Suppl 6, 36-39, 1987

Structure (SMILES): C=CC[C@@H]1/C=C(\C)C[C@H](C)C[C@H](OC)C2O[C@@](O)(C(=O)C(=O)N3CCCC[C@H]3C(=O)O[C@H](/C(C)=C/[C@@H]3CC[C@@H](O)[C@H](OC)C3)[C@H](C)[C@@H](O)CC1=O)[C@H](C)C[C@@H]2OC (relative stereo) [Tacrolimus, [3S-[3R*[E(1S*,3S*,4S*)],4S*,5R*,8S*,9E,12R*,14R*,15S*,16R*,18S*,19S*,26aR*]]-5,6,8,11,12,13,14,15,16,17,18,19,24,25,26,26a-hexadecahydro-5,19-dihydroxy-3-[2-(4-hydroxy-3-methoxycyclohexyl)-1-methylethenyl]-14,16-dimethoxy-4,10,12,18-tetramethyl-8-(2-propenyl)-15,19-epoxy-3H-pyrido[2,1-c][1,4]oxaazacyclotricosine-1,7,20,21(4H,23H)-tetrone, monohydrate]
- IC50 (a 50% inhibitory drug concentration in a human mixed lymphocyte reaction): 0.18 ng/mL
